Patent EP4144350B1, “TREATMENT OR PREVENTION OF VASCULAR MALFORMATION” (Universitätsmedizin Greifswald, priority 2021, dated 2023)

Experiments:
[1] = system: CCM3^-/- cells in fusion organoids; experiment: hiPSC-derived vascular fusion organoids, fluorescence imaging; assay type: cell-based, human; conditions: 10 µM, continuous culture, imaged day 5, 7, 10
Method: hiPSCs were differentiated into vascular organoids according to the protocol of Wimmer and colleagues. Briefly, 800,000 hiPSCs were seeded in ultra-low attachment 6-well plates (Corning) in aggregation medium for 2 days until aggregates had formed. On day 0, mesodermal induction was initiated with CHIR99021 (Tocris Bioscience, Bristol, United Kingdom) and BMP-4 (Miltenyi Biotec) in N2B27 medium. Supplementation of VEGF-A (PeproTech, Inc., Rocky Hill, NJ, USA) and forskolin (Sigma-Aldrich) on day 3 induced vascular differentiation. On day 5, vascular aggregates were embedded in a collagen I-Matrigel matrix. VEGF-A, FGF-2 (Miltenyi Biotec), and FBS (Thermo Fisher Scientific) enriched StemPro-34 medium (Thermo Fisher Scientific) was added for vessel sprouting. Vascular network extraction was performed on day 10.

[2] = system: CCM3^+/+ and CCM3^-/- CI-huVECs; experiment: Cell viability after compound treatment; assay type: cell-based, human; conditions: 72 h after treatment (Fig. 15)
[3] = system: caspase-3; experiment: Caspase-3 activity assay; assay type: cell-based, human
Method: The proliferation rate of mutant and wild-type ECs in monoculture was quantified with the CyQuant® Cell Proliferation Assay Kit (C7026, Thermo Fisher Scientific). To discriminate the proliferation rates of CCM3^+/+ and CCM3^-/- CI-huVEC in co-culture, the CyQuant® Cell Proliferation Assay results were combined with mutant allele frequencies that had been determined by amplicon deep sequencing. To analyse their sensitivity to apoptosis, mutant and wild-type ECs were seeded in 96-well plates with 15.000 cells per well, and treated with staurosporine (S440, Sigma-Aldrich, St. Louis, MO, USA) 24 h later. The Caspase-3 DEVD-R110 Fluorometric HTS Assay Kit (30009, Biotium, Fremont, CA, USA), the Cell Meter™ Caspase 8 Activity Apoptosis Assay Kit (22798, AAT Bioquest, Sunnyvale, CA, USA), and the Cell Meter™ Caspase 9 Activity Apoptosis Assay Kit (22799, AAT Bioquest) were used following the manufacturer's instructions.

[4] = system: CCM3^-/- CI-huVECs; experiment: CyQuant cell proliferation assay combined with mutant allele frequencies, co-culture (mutant cells); assay type: cell-based, human; conditions: six days
Method: Clonally expanded CI-huVEC lines with biallelic loss-of-function variants in the first coding exon of CCM3 have been described before or were established according to a published CRISPR/Cas9 genome editing protocol. Blood outgrowth endothelial cells (BOECs) were cultured in EGM-2 medium (Lonza, Basel, Switzerland) supplemented with 18 % FCS. With the approval of the local ethics committee (University Medicine Greifswald, Germany; No.: BB 047/14a), CCM1^-/- BOECs had been established previously from CCM1^+/- BOECs of a CCM1 mutation carrier with CRISPR/Cas9 genome editing. Mutant and wild-type ECs were co-cultured in 96-well plates under standard culture conditions with the indicated mutant-to-wild-type ratios. 2500 cells were seeded per well. The proliferation rate of mutant and wild-type ECs in monoculture was quantified with the CyQuant® Cell Proliferation Assay Kit (C7026, Thermo Fisher Scientific). To discriminate the proliferation rates of CCM3^+/+ and CCM3^-/- CI-huVEC in co-culture, the CyQuant® Cell Proliferation Assay results were combined with mutant allele frequencies that had been determined by amplicon deep sequencing. To analyse their sensitivity to apoptosis, mutant and wild-type ECs were seeded in 96-well plates with 15.000 cells per well, and treated with staurosporine ([…], Sigma-Aldrich, St. Louis, MO, USA) 24 h later. The Caspase-3 DEVD-R110 Fluorometric HTS Assay Kit (30009, Biotium, Fremont, CA, USA), the Cell Meter^TM Caspase 8 Activity Apoptosis Assay Kit (22798, AAT Bioquest, Sunnyvale, CA, USA), and the Cell Meter^TM Caspase 9 Activity Apoptosis Assay Kit (22799, AAT Bioquest) were used following the manufacturer's instructions.

[5] = system: human tumour cell lines; conditions: cited from earlier work
[6] = system: colon-tumour xenografts; conditions: cited from earlier work
[7] = system: CCM3^-/- BMECs; experiment: hiPSC-derived BMEC co-culture, fluorescent imaging of clonal expansion; assay type: cell-based, human; conditions: 10 µM for six days, released, another six days under standard conditions
Method: Fluorescently tagged human induced pluripotent stem cells (Coriell Institute, Camden, NJ, USA) were maintained at 37 °C and 5 % CO2 in Essential 8 Flex medium (Thermo Fisher Scientific, Waltham, MA, USA) on plates coated with growth factor reduced matrigel (Corning Inc., Corning, NY, USA). Cells were passaged with 0.5 mM EDTA (Thermo Fisher Scientific). The following endogenously tagged cell lines as part of the Allen Cell Collection (Coriell Institute) were used: AICS-0036-006:WTC-mEGFP-Safe harbor locus (AAVS1)-cl6 and AICS-0054-091:WTC-mTagRFPT-CAAX-Safe harbor locus (AAVS1)-cl91.
CCM3^+/+ AICS-0054 hiPSCs, CCM3^+/+ and CCM3^-/- AICS-0036 hiPSCS were differentiated into human brain microvacular endothelial-like cells (hBMECs). Briefly, 158,000 cells were seeded in Essential 8 Flex medium containing 10 µM Y-27632 on growth factor reduced Matrigel-coated 6-well plates. After 24 h, differentiation was initiated by substitution of Essential 8 Flex with Essential 6 medium (Thermo Fisher Scientific). Medium was changed daily for 4 days. […] The ratio of EGFP-tagged AICS-0036 cells compared to all cells was determined using the ImageJ software. […]

## CN1CCN(C(=O)/C=C/c2ccc([N+](=O)[O-])o2)CC1 [NSC59984, (E)-1-(4-methylpiperazin-1-yl)-3-(5-nitrofuran-2yl)prop-2-en-1-one]
[1]
  Proliferation of CCM3^-/- cells in fusion organoids: inhibited the proliferation of CCM3^-/- cells in fusion organoids
[2]
  Cell viability differences between CCM3^+/+ and CCM3^-/- CI-huVECs: No cell viability differences
[3]; Fig. 16
  Apoptosis / caspase-3 activation: induced apoptosis at a tolerable level
[3]; treatment for 24 h, CCM3^+/+ and CCM3^-/- CI-huVECs (Fig. 16)
  Caspase-3 activities: did not increase caspase-3 activities
[4]; 1 µM
  Relative proliferation rate of CCM3^-/- CI-huVECs: 4632%
[4]; 5 µM
  Relative proliferation rate of CCM3^-/- CI-huVECs: 1671%
[4]; 10 µM
  Relative proliferation rate of CCM3^-/- CI-huVECs: 419%
[5]
  Cell growth of tumour cell lines: reduce cell growth in various human tumour cell lines
  Genotoxic effects on normal cells: minimal genotoxic effects on normal cells
[6]
  Adverse effects in xenograft mice: Without apparent adverse effects
[6]; mice
  Growth of colon-tumour xenografts: repressed the growth of colon-tumour xenografts in mice
[7]
  Clonal expansion of CCM3^-/- BMECs in co-culture: blocked the clonal expansion of CCM3^-/- BMECs in co-culture
